Assay results: the NIST ThermoML archive (doi:10.1016/j.jct.2016.11.019)
Numbers after ± are expanded uncertainties.

Assay: Molar enthalpy of transition or fusion
Details: Crystal; DSC

Molar enthalpy of transition or fusion: 6.87 ± 0.237 kcal/mol
Compound: Nc1cc(Cl)ccc1C(=O)O [2-amino-4-chlorobenzoic acid]
